Data on one substance can be found in US7915302B2, “Crystal forms of pyrrolylheptanoic acid derivatives” (Dong-A Pharm. Co., Ltd., priority 2007, dated 2011).

This data set in a line: Stability Identification-Content Measurement (HPLC content after storage in HDPE bottle). Format: physicochemical. The protocol:
80 mg of the novel crystalline form of the compound prepared in Example 2 and 80 mg of a standard product with a purity of 99.9% prepared by the process described in Example 2 were accurately weighed, placed in 100 ml volumetric flasks, and dissolved in dimethylformamide. The volumes of the solutions were adjusted to the marked lines of the flasks to prepare test solutions and standard solutions, respectively. Each of the solutions was analyzed by column chromatography under the following conditions: • Column: Zorbax Rx C8 (4.6 mm×250 mm, 5 μm) or its equivalent • Mobile Phase (0.05 M ammonium acetate buffer (pH=5.0)/acetonitrile/tetrahydrofuran) Mobile Phase A: • 0.05 M ammonium acetate buffer (pH=5.0)/acetonitrile/tetrahydrofuran (67/21/12) Mobile Phase B: • 0.05M ammonium acetate buffer (pH=5.0)/acetonitrile/tetrahydrofuran (54/34/12) • Detector: UV absorption spectrophotometer (wavelength: 244 nm) • Flow Rate: 1.0 mL/min. • Column Temperature: 35±2° C. • Storage: in HDPE bottle
The contents of the compound prepared in Example 2 were quantified by the area under each peak. Variations in the content of the compound were evaluated at room temperature, in a freezer, under accelerated storage conditions and under extreme storage conditions over the periods indicated in Table 6, and the results are shown in Table 6.

For the substance “[R—(R*,R*)]-2-(4-fluorophenyl)-β,δ-dihydroxy-5-(1-methylethyl)-3-phenyl-4-[(phenylamino)carbonyl]-1H-pyrrole-1-heptanoic acid hemicalcium salt [Example 2]”, the “content of the compound” value is on record as 98.82% (40° C./75% RH (accelerated storage), 1 month); 98.33% (40° C./75% RH (accelerated storage), 2 months); 98.03% (40° C./75% RH (accelerated storage), 3 months); 98.01% (60° C./Dry (extreme storage), 1 month); 98.72% (at room temp., 1 month); 98.58% (at room temp., 2 months). The “content of the compound” value runs as follows: (at room temp., 3 months) 98.12%; (at room temp., 6 months) 98.56%; (in freezer, 1 month) 99.74%; (in freezer, 2 months) 99.31%; (in freezer, 3 months) 100.19%; (in freezer, 6 months) 98.11%.
